Source: US5360803A, “Composition and method for treating cancer” (Dan Farber Cancer Institute, priority 1992, dated 1994)
Read-outs that look alike come from different tables or passages of the source.

Legend:
CV-1 cells = assay: selective killing assay, colony number reduced to 50% of control, normal monkey kidney epithelial cell line CV-1; format: cell-based; details: 24 hours treatment; for IC50: Primates
Excerpt: (§1) The control received culture media only.

CX-1 cells = assay: selective killing assay, colony number reduced to 50% of control, human colon carcinoma cell line CX-1; format: cell-based; details: for Selectivity (ratio of IC50 for CV-1 and IC50 for CX-1): CV-1/CX-1; for IC50: Homo sapiens;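 on all read-outs here: colonies stained with crystal violet and counted, control cells given medium alone, exposure at 37 °C, normal monkey kidney epithelial CV-1 cells as the non-cancer comparator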
EJ cells = assay: colony assay of Example 1 with human bladder carcinoma EJ cell line; format: cell-based; details: for Selectivity: CV-1/EJ; for IC50: EJ;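 on all read-outs here: colony formation assay with 24 h compound exposure at 37 °C, then 7–10 days drug-free regrowth, colonies stained with crystal violet, controls given medium alone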
LOX cells = assay: colony assay of Example 1 with human melanoma LOX cell line; format: cell-based; details: for Selectivity: CV-1/LOX; for IC50: LOX; for IC50 / LOX(IC50): Table V, human melanoma, 24 hours treatment;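 on all read-outs here: colony formation assay with 24 h exposure at 37 °C, then 7 to 10 days of regrowth, crystal violet staining of colonies, control wells given medium alone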
MCF-7 cells = assay: colony assay of Example 1 with human breast carcinoma MCF-7 cell line; format: cell-based; details: for Selectivity: CV-1/MCF-7; for IC50 / MCF-7(IC50): Table VI, human breast carcinoma, 24 hours treatment
Excerpt: as §1

CRL 1420 cells = assay: colony assay of Example 1 with human pancreatic carcinoma CRL 1420 cell line; format: cell-based; details: for Selectivity: CV-1/CRL-1420; for CRL-1420(IC50) / IC50: Table VII, human pancreatic carcinoma, 24 hours treatment; for IC50: Homo sapiens, 24 h;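 on all read-outs here: colony formation assay, cells exposed for 24 h then regrown 7 to 10 days without compound, colonies stained with crystal violet, control given medium alone, normal reference CV-1 monkey kidney epithelial cells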
human melanoma LOX = assay: survival of nude mice implanted with human melanoma LOX; format: in vivo, male athymic Swiss nu/nu mouse (human tumor); details: Mus musculus, ip, 24 h, read-out: T/C; for response vs control in vivo at 3 mg/kg: 3 mg/kg i.p. on day 1, 4, 8, 10, 12
Procedure: LOX, a human melanoma cell line, grown subcutaneously in nude mice was excised, trypsinized to yield a single cell suspension using a metal grid with a […] mesh. […] Five million viable trypan blue negative cells made up in 0.1 ml of Dulbecco modified Eagle medium (DMFE) were injected into the peritoneal cavity of a male athymic Swiss nu/nu mouse. The control group and each treatment group consisted of 5 to 10 mice. Treatment was commenced the following day by intraperitoneal injection.
Ten control mice received 0.25 ml of 2% dextrose on these days the treated groups were injected with the compounds of this invention. […] T/C is the ratio, expressed as a percentage of the mean survival age of the treated group to the mean survival age of the untreated control group.

[1] = CV-1, Table III, normal monkey kidney epithelial cells, colony count after 7 to 10 days
[2] = CX-1, Table III, human colon carcinoma, 24 hours treatment, colony count after 7 to 10 days
[3] = Homo sapiens, 24 h, Table IV, human bladder carcinoma, 24 hours treatment
[4] = 5 mg/kg i.p. on day 1, 4, 8, 11, 15
[5] = Table IV, human bladder carcinoma, 24 hours treatment

IC50 (EJ cells; [3])	IC50 (LOX cells; Homo sapiens, 24 h)	IC50 (MCF-7 cells; Homo sapiens, MCF7, 24 h)	CRL-1420(IC50) (CRL 1420 cells)	Structure (SMILES)	IC50 (CV-1 cells; CV-1, 24 h, Table IV)	IC50 (CV-1 cells; CV-1, 24 h, Table V)	IC50 (CV-1 cells; CV-1, 24 h, Table VI)	IC50 (CV-1 cells; CV-1, 24 h, Table VII)	IC50 (CV-1 cells; [1])	Selectivity (ratio of IC50 for CV-1 and IC50 for CX-1) (CX-1 cells)	IC50 (CX-1 cells; [2])	Selectivity (EJ cells)	Selectivity (LOX cells)	Selectivity (MCF-7 cells)	Selectivity (CRL 1420 cells)	also measured
			0.04 µg/mL	CCn1c(=CC2=[N+](CC)CCS2)sc(=C2Sc3ccccc3N2C)c1=O [Compound 335]						200		200	667	100	500	CV-1 (IC50) (CV-1 cells; Table III, normal monkey kidney epithelial cells, colony count after 7 to 10 days): 26 µg/mL; CV-1 (IC50) (CV-1 cells; Table IV): 20 µg/mL; CV-1 (IC50) (CV-1 cells; Table V): 20 µg/mL; CV-1 (IC50) (CV-1 cells; Table VI): 20 µg/mL; CV-1 (IC50) (CV-1 cells; Table VII): 20 µg/mL; CX-1 (IC50) (CX-1 cells; Table III, human colon carcinoma, 24 hours treatment, colony count after 7 to 10 days): 0.1 µg/mL; EJ (IC50) (EJ cells; [5]): 0.1 µg/mL; LOX(IC50) (LOX cells): 0.03 µg/mL; MCF-7(IC50) (MCF-7 cells): 0.2 µg/mL; response vs control in vivo at 5 mg/kg (human melanoma LOX; 5 mg/kg i.p. on day 1, 5, 8, 11, 14): 189%
0.05 µg/mL	0.02 µg/mL	0.04 µg/mL		CCn1c(=Cc2cc[n+](CC)c3ccccc23)sc(=C2C=Cc3ccccc3N2C)c1=O [Compound 232]	6 µg/mL	6 µg/mL	6 µg/mL	6 µg/mL				120	300	150	200	IC50 (CRL 1420 cells): 0.03 µg/mL; response vs control in vivo at 3 mg/kg (human melanoma LOX): > 270%
			0.03 µg/mL	CCn1c(=Cc2sc3ccccc3[n+]2CC)sc(=C2Sc3ccccc3N2C)c1=O [Compound 336]								667	4000	100	667	IC50 (CV-1 cells; CV-1, Table IV): 20 µg/mL; IC50 (CV-1 cells; CV-1, Table V): 20 µg/mL; IC50 (EJ cells; [5]): 0.03 µg/mL; IC50 (LOX cells): 0.005 µg/mL; IC50 (MCF-7 cells; MCF7): 0.2 µg/mL; response vs control in vivo at 5 mg/kg (human melanoma LOX; 5 mg/kg i.p. on day 1, 3, 4, 6, 8, 10, 13): 188%

Second part, the compound before the results:

Structure (SMILES)	IC50 (EJ cells; [3])	IC50 (LOX cells; Homo sapiens, 24 h)	IC50 (MCF-7 cells; Homo sapiens, MCF7, 24 h)	CRL-1420(IC50) (CRL 1420 cells)	IC50 (CV-1 cells; CV-1, 24 h, Table IV)	IC50 (CV-1 cells; CV-1, 24 h, Table V)	IC50 (CV-1 cells; CV-1, 24 h, Table VI)	IC50 (CV-1 cells; CV-1, 24 h, Table VII)	IC50 (CV-1 cells; [1])	Selectivity (ratio of IC50 for CV-1 and IC50 for CX-1) (CX-1 cells)	IC50 (CX-1 cells; [2])	Selectivity (EJ cells)	Selectivity (LOX cells)	Selectivity (MCF-7 cells)	Selectivity (CRL 1420 cells)	also measured
CCn1c(=Cc2sc3c4ccccc4ccc3[n+]2CC)sc(=C2Sc3ccc4ccccc4c3N2C)c1=O [Compound 82]	0.015 µg/mL	0.064 µg/mL	0.064 µg/mL	0.015 µg/mL	20 µg/mL	20 µg/mL	20 µg/mL	20 µg/mL	20 µg/mL	400	0.05 µg/mL	1333	312	312	1333	response vs control in vivo at 5 mg/kg (human melanoma LOX; [4]): 142%
CCn1c(=Cc2sc3ccccc3[n+]2CC)sc(=C2Sc3ccccc3N2C)c1=O [Compound 2]	0.02 µg/mL			0.01 µg/mL		10 µg/mL	10 µg/mL	10 µg/mL	10 µg/mL	333		200	667	111	1000	CV-1 (IC50) (CV-1 cells; Table IV): 4 µg/mL; IC50 (CX-1 cells; CX-1): 0.03 µg/mL; LOX(IC50) (LOX cells): 0.015 µg/mL; MCF-7(IC50) (MCF-7 cells): 0.09 µg/mL; response vs control in vivo at 5 mg/kg (human melanoma LOX; [4]): 163%
CCn1c(=CC2=[N+](CC)CCS2)sc(=C2Oc3ccc4ccccc4c3N2C)c1=O [Compound 215]		0.04 µg/mL	0.1 µg/mL			20 µg/mL	20 µg/mL	20 µg/mL	10 µg/mL	200	0.05 µg/mL		500	200	222	IC50 (CRL 1420 cells): 0.09 µg/mL; response vs control in vivo at 3 mg/kg (human melanoma LOX): 167%
CCn1c(=Cc2sc3c4ccccc4ccc3[n+]2CC)sc(=C2Sc3ccccc3N2C)c1=O [Compound 31]	0.02 µg/mL	0.04 µg/mL	0.04 µg/mL		10 µg/mL	10 µg/mL	10 µg/mL		10 µg/mL	333	0.03 µg/mL	500	250	250		response vs control in vivo at 5 mg/kg (human melanoma LOX; 5 mg/kg i.p. on day 1, 4, 8, 11): 153%
